Where two headings read alike, the source gives them in different places.
Legend:
[1] = test system: splenic lymphocytes isolated from C57BL/6 mice and CBA mice; experiment: Immunosuppression ([3H]TMD incorporation in mouse splenic lymphocytes); assay type: cell-based; conditions: "Not active" = less than 25% inhibition at 1000 nM
TNF-α = TNF-α secretion (h) (PBMC); assay type: cell-based, human; conditions: LPS (1 μg/ml), 24 h/37° C., EIA, "Not active" = less than 25% inhibition at highest tested concentration 1000 nM; for IC50: read-out: TNF-α secretion IC50
IL-1β = IL-1β secretion (h) (PBMC); assay type: cell-based; conditions: Homo sapiens, LPS (1 μg/ml), 24 h/37° C., EIA
cytokine release = experiment: Panel of standard cell-based in vitro assays evaluating cytokine release inhibition; conditions: prodrugs compared to the steroid drugs (Examples 27 and 62, respectively)
Procedure: The selected compounds of the invention were tested in a panel of standard, cell-based in vitro assays evaluating the cytokine release inhibition and thus the anti-inflammatory activity of a test article. Several potent steroid analogs were identified, namely compounds described in Examples 23, 27, 43, 59 and 62. […] Therefore by masking the pharmacological properties of a respective steroid the mutual prodrug mitigates the oropharyngeal side effects and confines the antiinflammatory activity of a steroid to the endobronchial space, where the lung enzymes (specifically alkaline phosphatase) release the pharmacologically active steroid (see Examples 141-143).

alkaline phosphatase = experiment: Conversion of mutual prodrugs after exposure to alkaline phosphatase (ALP experiment); conditions: for Steroid 13 Concentration / Salmeterol Concentration: mutual prodrug 16 + alkaline phosphatase;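 for all read-outs here: mutual prodrug and its released products quantified by LCMS over time in buffer with alkaline phosphatase, compared against enzyme-free control buffer, incubations running 25–50 hours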
Procedure: Reaction and control solutions were prepared by adding a 500 μL aliquot of a ˜200 ng/μl solution in 1:1 acetonitrile/water of and the compound 16 (or alternatively 17) to 500 μl of a pH 7.4 buffer solution, containing 5 mM tris(hydroxymethyl)aminomethane, 1 mM ZnCl2, 1 mM MgCl2. For the reaction solutions, the buffer also contained approximately 600 ng/μl of alkaline phosphatase (Sigma-Aldrich) whereas the control buffer solutions contained no enzyme. The reaction and control solutions were incubated at 37° C. for 25 to 50 hours. The solutions were analyzed periodically for the respective mutual prodrug and reaction products by LCMS.
The concentration of the alkaline phosphatase in the reaction buffer was ˜600 ng/μL (the enzyme activity of the solution was not determined).
The concentration of the alkaline phosphatase in the buffer added to the stock solution was ˜600 ng/μl (the enzyme activity of the solution was not determined).

[2] = read-out: Immunosuppresion IC50, mouse splenic lymphocytes, 72 h/37° C., [3H]TMD incorporation
[3] = Mus musculus, Splenic lymphocyte, read-out: Immunosuppresion IC50, mouse splenic lymphocytes, 72 h/37° C., [3H]TMD incorporation

SMILES | IC50 [1, 3] | IC50 (TNF-α; Homo sapiens, 24 h) | IC50 (IL-1β) | anti-inflammatory activity (cytokine release inhibition), assessment in words (cytokine release) | TNF-α secretion IC50 (TNF-α) | other results
C[C@]12C=CC(=O)C=C1CC[C@H]1[C@@H]3C[C@H]4OC(c5cccnc5)O[C@@]4(C(=O)CO)[C@@]3(C)C[C@H](O)[C@@]12F (single isomer, unassigned) [Example 22R-epimer] | – | – | – | – | – | IC50 [1, 2]: 0.89 nM; IC50 (TNF-α): 12 nM
C[C@]12C=CC(=O)C=C1CC[C@H]1[C@@H]3C[C@H]4OC(c5cccnc5)O[C@@]4(C(=O)CO)[C@@]3(C)C[C@H](O)[C@@]12F (single isomer, unassigned) [Example 22S-epimer] | – | – | – | – | – | IC50 [1, 2]: 36 nM; IC50 (TNF-α): > 1000 nM
C[C@]12C=CC(=O)C=C1CC[C@@H]1[C@@H]2[C@@H](O)C[C@@]2(C)[C@H]1C[C@H]1O[C@@H](C3CCCCC3)O[C@]12C(=O)CO [Example 22, 16,17-[(Cyclohexylmethylene)bis(oxy)]-11,21-dihydroxypregna-1,4-diene-3,20-dione[11β,16α(R)]] | 1.5 nM | 12 nM | 2.1 nM | – | – | –
C[C@]12C=CC(=O)C=C1CC[C@H]1[C@@H]3C[C@H]4O[C@@H](C5CCCCC5)O[C@@]4(C(=O)CO)[C@@]3(C)C[C@H](O)[C@@]12F [Example 23, 16,17-[(Cyclohexylmethylene)bis(oxy)]-9-fluoro-11,21-dihydroxypregna-1,4-diene-3,20-dione[11β,16α(R)]] | 0.34 nM | 1.2 nM | – | potent | – | –
CN1CCN(CC(=O)[C@@]23O[C@H](C4CCCCC4)O[C@@H]2C[C@H]2[C@@H]4CCC5=CC(=O)C=C[C@]5(C)[C@H]4[C@@H](O)C[C@@]23C)CC1 [Example 26, 16,17-[(Cyclohexylmethylene)bis(oxy)]-11-hydroxy-21-(4-methylpiperazyn-1-yl)-pregna-1,4-diene-3,20-dione[11β,16α(R)]] | 31 nM | – | > 1000 nM | – | Not active | –
CN1CCN(CC(=O)[C@@]23O[C@H](C4CCCCC4)O[C@@H]2C[C@H]2[C@@H]4CCC5=CC(=O)C=C[C@]5(C)[C@@]4(F)[C@@H](O)C[C@@]23C)CC1 [Example 27, 16,17-[(Cyclohexylmethylene)bis(oxy)]-9-fluoro-11-hydroxy-21-(4-methylpiperazyn-1-yl)-pregna-1,4-diene-3,20-dione[11β,16α(R)]] | 12 nM | – | 36 nM | potent | Not active | Steroid 13 Concentration (alkaline phosphatase; 0.00 Hours @ 37° C.): 0.0 nmol/mL; Steroid 13 Concentration (alkaline phosphatase; 0.59 Hours @ 37° C.): 1.6 nmol/mL; Steroid 13 Concentration (alkaline phosphatase; 1.19 Hours @ 37° C.): 4.1 nmol/mL; Steroid 13 Concentration (alkaline phosphatase; 2.96 Hours @ 37° C.): 15.3 nmol/mL; Steroid 13 Concentration (alkaline phosphatase; 3.56 Hours @ 37° C.): 20.2 nmol/mL; Steroid 13 Concentration (alkaline phosphatase; 4.15 Hours @ 37° C.): 21.6 nmol/mL; Steroid 13 Concentration (alkaline phosphatase; 10.67 Hours @ 37° C.): 49.5 nmol/mL; Steroid 13 Concentration (alkaline phosphatase; 15.41 Hours @ 37° C.): 54.6 nmol/mL; Steroid 13 Concentration (alkaline phosphatase; 19.56 Hours @ 37° C.): 62.9 nmol/mL; Steroid 13 Concentration (alkaline phosphatase; 24.30 Hours @ 37° C.): 67.3 nmol/mL; Steroid 13 Concentration (alkaline phosphatase; 30.82 Hours @ 37° C.): 69.3 nmol/mL; Steroid 13 Concentration (alkaline phosphatase; 34.97 Hours @ 37° C.): 66.5 nmol/mL
C[C@]12C=CC(=O)C=C1CC[C@H]1[C@@H]3C[C@H]4O[C@@H](C5CCCCC5)O[C@@]4(C(=O)CN4CCOCC4)[C@@]3(C)C[C@H](O)[C@@]12F [Example 34, 16,17-[(Cyclohexylmethylene)bis(oxy)]-9-fluoro-11-hydroxy-21-(4-morpholin-1-yl)-pregna-1,4-diene-3,20-dione[11β,16α(R)]] | 20 nM | > 1000 nM | – | – | – | –
C[C@]12C=CC(=O)C=C1CC[C@H]1[C@@H]3C[C@H]4O[C@@H](C5CCCCC5)O[C@@]4(C(=O)CN4CCC4)[C@@]3(C)C[C@H](O)[C@@]12F [Example 43, 16,17-[(Cyclohexylmethylene)bis(oxy)]-9-fluoro-11-hydroxy-21-(azetidin-1-yl)-pregna-1,4-diene-3,20-dione[11β,16α(R)]] | 8.8 nM | > 1000 nM | – | potent | – | –
C[C@]12C=CC(=O)C=C1CC[C@H]1[C@@H]3C[C@H]4O[C@@H](C5CCCCC5)O[C@@]4(C(=O)Cn4ccnc4)[C@@]3(C)C[C@H](O)[C@@]12F [Example 45, 16,17-[(Cyclohexylmethylene)bis(oxy)]-9-fluoro-11-hydroxy-21-(imidazol-1-yl)-pregna-1,4-diene-3,20-dione[11β,16α(R)]] | > 1000 nM | – | – | – | Not active | –
C[C@]12C=CC(=O)C=C1CC[C@H]1[C@@H]3C[C@H]4O[C@@H](C5CCCCC5)O[C@@]4(C(=O)CSc4ccncc4)[C@@]3(C)C[C@H](O)[C@@]12F [Example 47, 16,17-[(Cyclohexylmethylene)bis(oxy)]-9-fluoro-11-hydroxy-21-(pyridin-4-yl-thio)-pregna-1,4-diene-3,20-dione[11β,16α(R)]] | 66 nM | – | – | – | Not active | –
CN1CCC(C2O[C@@H]3C[C@H]4[C@@H]5CCC6=CC(=O)C=C[C@]6(C)[C@H]5[C@@H](O)C[C@]4(C)[C@]3(C(=O)CO)O2)CC1 (stereo partly drawn) [Example 56, 16,17-[(1-Methylpiperidyl-4-methylene)bis(oxy)]-11,21-dihydroxypregna-1,4-diene-3,20-dione[11β,16α]] | – | – | > 1000 nM | – | Not active | Immunosuppresion IC50 ([1]; mouse splenic lymphocytes, 72 h/37° C., [3H]TMD incorporation): Not active
CN1CCC(C2O[C@@H]3C[C@H]4[C@@H]5CCC6=CC(=O)C=C[C@]6(C)[C@@]5(F)[C@@H](O)C[C@]4(C)[C@]3(C(=O)CO)O2)CC1 (stereo partly drawn) [Example 57, 16,17-[(1-Methylpiperidyl-4-methylene)bis(oxy)]-9-fluoro-11,21-dihydroxypregna-1,4-diene-3,20-dione[11β,16α]] | > 1000 nM | – | > 1000 nM | – | Not active | –
C[C@]12C=CC(=O)C=C1CC[C@@H]1[C@@H]2[C@@H](O)C[C@@]2(C)[C@H]1C[C@H]1OC(c3cccnc3)O[C@]12C(=O)CO (stereo partly shown) [Example 59] | 2 nM | 85 nM | – | potent | – | –
C[C@]12C=CC(=O)C=C1CC[C@H]1[C@@H]3C[C@H]4OC(c5cccnc5)O[C@@]4(C(=O)CO)[C@@]3(C)C[C@H](O)[C@@]12F (stereo partly shown) [Example 62] | – | – | 350 nM | potent | – | IC50 [1, 2]: 1.9 nM; IC50 (TNF-α): 11 nM; Steroid 14 Concentration (alkaline phosphatase; mutual prodrug 17 + alkaline phosphatase, 2.10 Hours @ 37° C.): 22.6 nmol/mL
OCc1cc(C(O)CNCCCCCCOCCCCc2ccccc2)ccc1O (stereo not shown) [Salmeterol, salmeterol, reference compound] | – | – | – | – | – | Salmeterol Concentration (alkaline phosphatase; 0.00 Hours @ 37° C.): 0.1 nmol/mL; Salmeterol Concentration (alkaline phosphatase; 0.59 Hours @ 37° C.): 1.8 nmol/mL; Salmeterol Concentration (alkaline phosphatase; 1.19 Hours @ 37° C.): 4.4 nmol/mL; Salmeterol Concentration (alkaline phosphatase; 2.96 Hours @ 37° C.): 12.3 nmol/mL; Salmeterol Concentration (alkaline phosphatase; 3.56 Hours @ 37° C.): 14.4 nmol/mL; Salmeterol Concentration (alkaline phosphatase; 4.15 Hours @ 37° C.): 17.1 nmol/mL; Salmeterol Concentration (alkaline phosphatase; 10.67 Hours @ 37° C.): 34.2 nmol/mL; Salmeterol Concentration (alkaline phosphatase; 15.41 Hours @ 37° C.): 41.4 nmol/mL; Salmeterol Concentration (alkaline phosphatase; 19.56 Hours @ 37° C.): 44.8 nmol/mL; Salmeterol Concentration (alkaline phosphatase; 24.30 Hours @ 37° C.): 46.9 nmol/mL; Salmeterol Concentration (alkaline phosphatase; 30.82 Hours @ 37° C.): 48.1 nmol/mL; Salmeterol Concentration (alkaline phosphatase; 34.97 Hours @ 37° C.): 49.6 nmol/mL
